In PubChem BioAssay AID330 (DTP/NCI, 2004):
Values joined by “and” are separate entries in the source; they are usually repeats but may differ in a detail not shown here. Identical values can stand only once. Inconclusive results and toxic doses are left out. Peptide text beside a SMILES is read from it. * marks the point of attachment. Cbz = O=C(OCc1ccccc1)*; βAla = NCCC(=O)O

System: P388 leukemia ip, CD2F1 mice, survival T/C
Experiment: NCI In Vivo Anticancer Drug Screen. Data for tumor model P388 Leukemia (intraperitoneal) in CD2F1 (CDF1) mice
Conditions: endpoint: median survival time, higher = longer survival
Procedure, shortened: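 Mice carrying the transplanted tumor received test compound or vehicle. Survival was recorded in each group, and the value is the treated-group measurement divided by that of the vehicle-treated control group.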

[1] = dose: 12.5 mg/kg/injection, schedule: Q01DX009 (ip), vehicle: saline with Tween-80
[2] = dose: 60.0 mg/kg/injection, schedule: Q01DX005 (ip), vehicle: saline with Tween-80
[3] = dose: 120.0 mg/kg/injection, schedule: Q01DX005 (ip), vehicle: saline with Tween-80
[4] = dose: 240.0 mg/kg/injection, schedule: Q01DX005 (ip), vehicle: saline with Tween-80
[5] = dose: 50.0 mg/kg/injection, schedule: Q01DX005 (ip), vehicle: saline with Tween-80
[6] = dose: 100.0 mg/kg/injection, schedule: Q01DX005 (ip), vehicle: saline with Tween-80
[7] = dose: 50.0 mg/kg/injection, schedule: Q01DX009 (ip), vehicle: saline with Tween-80
[8] = dose: 100.0 mg/kg/injection, schedule: Q01DX009 (ip), vehicle: saline with Tween-80
[9] = dose: 200.0 mg/kg/injection, schedule: Q01DX009 (ip), vehicle: saline with Tween-80
[10] = dose: 100.0 mg/kg/injection, schedule: Q01DX001 (ip), vehicle: saline with Tween-80
[11] = dose: 200.0 mg/kg/injection, schedule: Q01DX001 (ip), vehicle: saline with Tween-80
[12] = dose: 100.0 mg/kg/injection, schedule: Q01DX009 (ip), vehicle: saline

CCOC(=O)C(=O)Nc1oc(C)c(C)c1C#N
T/C (dose: 12.5 mg/kg/injection, schedule: Q01DX009 (ip), vehicle: saline + alcohol): 100 % of control and 107 % of control and 118 % of control
T/C (dose: 25.0 mg/kg/injection, schedule: Q01DX009 (ip), vehicle: saline + alcohol): 109 % of control and 116 % of control and 124 % of control
T/C (dose: 25.0 mg/kg/injection, schedule: Q04DX003 (ip), vehicle: saline + alcohol): 115 % of control
T/C (dose: 50.0 mg/kg/injection, schedule: Q04DX003 (ip), vehicle: saline + alcohol): 106 % of control
T/C (dose: 100.0 mg/kg/injection, schedule: Q01DX001 (ip), vehicle: saline + alcohol): 95 % of control
T/C (dose: 100.0 mg/kg/injection, schedule: Q01DX009 (ip), vehicle: saline + alcohol): 110 % of control and 93 % of control
T/C (dose: 100.0 mg/kg/injection, schedule: Q04DX003 (ip), vehicle: saline + alcohol): 112 % of control
T/C (dose: 200.0 mg/kg/injection, schedule: Q01DX001 (ip), vehicle: saline + alcohol): 96 % of control

Clc1ccc(C2C3CCN2CC3)cc1 (centres undefined)
T/C (dose: 0.78 mg/kg/injection, schedule: Q01DX009 (ip), vehicle: saline): 100 % of control
T/C (dose: 1.56 mg/kg/injection, schedule: Q01DX009 (ip), vehicle: saline): 96 % of control
T/C (dose: 3.12 mg/kg/injection, schedule: Q01DX009 (ip), vehicle: saline): 94 % of control

COc1cccc(C(=O)CC[N+](C)(C)C)c1
T/C (dose: 3.13 mg/kg/injection, schedule: Q01DX009 (ip), vehicle: saline with Tween-80): 100 % of control
T/C (dose: 6.25 mg/kg/injection, schedule: Q01DX009 (ip), vehicle: saline with Tween-80): 102 % of control
T/C [1]: 103 % of control

[N-]=[N+]=Nc1ccnc2cc(Cl)ccc12
T/C [2]: 108 % of control
T/C [3]: 100 % of control
T/C [4]: 104 % of control

CCn1c(O)c(N=O)c(=O)n(CC)c1=S
T/C (dose: 50.0 mg/kg/injection, schedule: Q04DX002 (ip), vehicle: saline with Tween-80): 105 % of control
T/C (dose: 100.0 mg/kg/injection, schedule: Q04DX002 (ip), vehicle: saline with Tween-80): 97 % of control

COc1cc(C(CC(C)=O)c2cc3c(cc2OC(C)=O)OCO3)cc(OC)c1OC (centres undefined) (tested in a mixture with another compound)
T/C (dose: 30.0 mg/kg/injection, schedule: Q01DX005 (ip), vehicle: saline with Tween-80): 99 % of control
T/C [2]: 102 % of control and 122 % of control
T/C [3]: 118 % of control
T/C [4]: 162 % of control and 188 % of control

COc1ccc(CCN2CCC(Nc3nc4ccccc4n3Cc3ccc(F)cc3)CC2)cc1
T/C [5]: 92 % of control
T/C [6]: 95 % of control

O=[N+]([O-])c1cc(Cl)ccc1Cl
T/C [7]: 100 % of control
T/C [8]: 100 % of control
T/C [9]: 91 % of control

Cc1ccc(N2CCN(CC(O)COc3cc4ccccc4c4c3CCCC4)CC2)cc1C (centres undefined)
T/C (dose: 100.0 mg/kg/injection, schedule: Q04DX003 (ip), vehicle: Klucel (hydroxypropylcellulose) (HPC)): 95 % of control
T/C (dose: 200.0 mg/kg/injection, schedule: Q04DX003 (ip), vehicle: Klucel (hydroxypropylcellulose) (HPC)): 104 % of control
T/C (dose: 400.0 mg/kg/injection, schedule: Q04DX003 (ip), vehicle: Klucel (hydroxypropylcellulose) (HPC)): 108 % of control

OC1CNCc2cc3c(cc21)OCO3 (centres undefined)
T/C (dose: 60.0 mg/kg/injection, schedule: Q01DX005 (ip), vehicle: saline): 110 % of control
T/C (dose: 120.0 mg/kg/injection, schedule: Q01DX005 (ip), vehicle: saline): 107 % of control
T/C (dose: 240.0 mg/kg/injection, schedule: Q01DX005 (ip), vehicle: saline): 100 % of control

CC1(C)N=C(N)N=C(N)N1c1cccc(CCCCc2ccc(S(=O)(=O)F)cc2)c1
T/C (dose: 25.0 mg/kg/injection, schedule: Q04DX003 (ip), vehicle: saline): 110 % of control

CN(C)c1ccc(/C=C/c2ccnc3c(O)cccc23)cc1
T/C (dose: 50.0 mg/kg/injection, schedule: Q01DX009 (ip), vehicle: Klucel (hydroxypropylcellulose) (HPC)): 113 % of control
T/C (dose: 100.0 mg/kg/injection, schedule: Q01DX009 (ip), vehicle: Klucel (hydroxypropylcellulose) (HPC)): 104 % of control
T/C (dose: 200.0 mg/kg/injection, schedule: Q01DX009 (ip), vehicle: Klucel (hydroxypropylcellulose) (HPC)): 95 % of control

Cc1nc2sccn2c1C(N)=O
T/C (dose: 60.0 mg/kg/injection, schedule: Q01DX005 (ip), vehicle: Klucel (hydroxypropylcellulose) (HPC)): 94 % of control
T/C [10]: 103 % of control
T/C (dose: 120.0 mg/kg/injection, schedule: Q01DX005 (ip), vehicle: Klucel (hydroxypropylcellulose) (HPC)): 97 % of control
T/C [11]: 114 % of control
T/C (dose: 400.0 mg/kg/injection, schedule: Q01DX001 (ip), vehicle: saline with Tween-80): 103 % of control

CCC(c1ccc(OCC(=O)N2CC2)cc1)C(CC)c1ccc(OCC(=O)N2CC2)cc1 (centres undefined)
T/C (dose: 100.0 mg/kg/injection, schedule: Q04DX003 (ip), vehicle: suspension in saline): 99 % of control
T/C (dose: 200.0 mg/kg/injection, schedule: Q04DX003 (ip), vehicle: suspension in saline): 98 % of control
T/C (dose: 400.0 mg/kg/injection, schedule: Q04DX003 (ip), vehicle: suspension in saline): 100 % of control

[NH-]NC(=S)[S-].[NH-]NC(=S)[S-].[Pt+4]
T/C (dose: 12.5 mg/kg/injection, schedule: Q04DX003 (ip), vehicle: Klucel (hydroxypropylcellulose) (HPC)): 103 % of control
T/C (dose: 25.0 mg/kg/injection, schedule: Q04DX003 (ip), vehicle: Klucel (hydroxypropylcellulose) (HPC)): 100 % of control
T/C (dose: 50.0 mg/kg/injection, schedule: Q04DX003 (ip), vehicle: Klucel (hydroxypropylcellulose) (HPC)): 109 % of control

[B-][N+](C)(C)Cc1ccccc1
T/C [1]: 90 % of control
T/C (dose: 25.0 mg/kg/injection, schedule: Q01DX009 (ip), vehicle: saline with Tween-80): 90 % of control
T/C [7]: 109 % of control

S=c1cc[nH]c2ccccc12
T/C (dose: 6.25 mg/kg/injection, schedule: Q01DX009 (ip), vehicle: other): 104 % of control
T/C (dose: 12.5 mg/kg/injection, schedule: Q01DX009 (ip), vehicle: other): 104 % of control
T/C (dose: 25.0 mg/kg/injection, schedule: Q01DX009 (ip), vehicle: other): 96 % of control
T/C (dose: 50.0 mg/kg/injection, schedule: Q01DX009 (ip), vehicle: other): 112 % of control
T/C (dose: 100.0 mg/kg/injection, schedule: Q01DX009 (ip), vehicle: other): 110 % of control

O=C(O)c1cc(C(=O)CC(=O)c2cc(C(=O)O)c(O)c3ccccc23)c2ccccc2c1O
T/C [7]: 94 % of control
T/C [8]: 88 % of control

O=C(O)C(Cc1ccc(F)cc1)NC(=O)C(F)(F)F (centres undefined)
T/C [7]: 95 % of control
T/C [8]: 95 % of control
T/C [9]: 100 % of control

CCCCCC/C=C/C1CC(=O)OC1=O (centres undefined)
T/C (dose: 100.0 mg/kg/injection, schedule: Q04DX003 (ip), vehicle: saline with Tween-80): 95 % of control

CNC(=O)Nc1cccc(C2(C)OCCS2)c1 (centres undefined)
T/C [2]: 100 % of control
T/C [3]: 94 % of control
T/C [4]: 99 % of control

O=C(/C=C/c1cccc([N+](=O)[O-])c1)Nc1cccc(S(=O)(=O)F)c1
T/C [2]: 102 % of control
T/C [3]: 93 % of control
T/C [4]: 91 % of control

O=C(O)CNC(=O)CNC(=O)CCNC(=O)OCc1ccccc1 ({Cbz-βAla}-Gly-Gly-OH)
T/C [5]: 101 % of control
T/C [6]: 97 % of control
T/C (dose: 200.0 mg/kg/injection, schedule: Q01DX005 (ip), vehicle: saline with Tween-80): 108 % of control

CCOC(=O)C(OCC)C1=Cc2ccccc2CC1 (centres undefined)
T/C (dose: 25.0 mg/kg/injection, schedule: Q01DX001 (ip), vehicle: Klucel (hydroxypropylcellulose) (HPC)): 93 % of control
T/C (dose: 50.0 mg/kg/injection, schedule: Q01DX001 (ip), vehicle: Klucel (hydroxypropylcellulose) (HPC)): 100 % of control
T/C (dose: 100.0 mg/kg/injection, schedule: Q01DX001 (ip), vehicle: Klucel (hydroxypropylcellulose) (HPC)): 93 % of control
T/C (dose: 200.0 mg/kg/injection, schedule: Q01DX001 (ip), vehicle: Klucel (hydroxypropylcellulose) (HPC)): 102 % of control
T/C (dose: 400.0 mg/kg/injection, schedule: Q01DX001 (ip), vehicle: Klucel (hydroxypropylcellulose) (HPC)): 107 % of control

NC(N)=N/N=C1\C(=O)N(c2cccc([N+](=O)[O-])c2)C(=O)C1C(=O)Nc1cccc([N+](=O)[O-])c1 (centres undefined)
T/C [10]: 102 % of control
T/C [11]: 100 % of control

O=C(O)CC1(C(=O)O)CCC(OCc2ccccc2)CC1 (centres undefined)
T/C (dose: 50.0 mg/kg/injection, schedule: Q01DX009 (ip), vehicle: saline): 102 % of control
T/C [12]: 92 % of control

Oc1cc2c(cc1O)CN1CCc3cc(O)c(O)cc3C1C2 (centres undefined)
T/C [12]: 114 % of control
T/C (dose: 200.0 mg/kg/injection, schedule: Q01DX009 (ip), vehicle: saline): 109 % of control
T/C (dose: 400.0 mg/kg/injection, schedule: Q01DX009 (ip), vehicle: saline): 101 % of control
